Results published in patent US10130590B2, “Methods of treating cancer with atovaquone-related compounds” (DANA-FARBER CANCER INSTITUTE, INC., priority 2013, dated 2018).

Legend:
eIF2α/ATF4 pathway = assay: Western blot / qRT-PCR of phospho-eIF2α/ATF4 pathway; type: cell-based
Description: Western blotting was performed as previously described (Battle T E, Arbiser J, & Frank D A (2005) The natural product honokiol induces caspase dependent apoptosis in B-cell chronic lymphocytic leukemia (B-CLL) cells. Blood 106(2):690-697). Antibodies to phospho-MAPK (9101), total MAPK (9102), phospho-Y705 STAT3 (9131), phospho-S6 (2215), total S6 (2217), phospho-4E-BP1 (9451), total 4E-BP1 (9644), total RSK (9355), phospho-S6K (9234, 85 used at 1:5000), total S6K (2708), phospho-eIF2α (9721, used at 1:1000), total eIF2α (5324), ATF4 (11815, used at 1:1000), PDGFRβ (3169), IGF1Rβ (9750), EGFR (2232), and HER2 (2242) were from Cell Signaling Technology. Phospho-RSK antibody was from R&D (AF889). Antibodies to total STAT3 (sc-482) and gp130 (sc-656, used at 1:1000) were from Santa Cruz Biotechnology. Phospho-S727 STAT3 antibody was described previously (229). REDD1 antibody was from Proteintech (10638-1-AP, used at 1:1000). Antibody recognizing full-length and cleaved ATF6 was from Abcam (ab122897, used at 1:1000). Antibodies to tubulin (T5168) and beta actin (A5316) were from Sigma. All antibodies were used at 1:10000 dilution for western blot unless otherwise noted. For immunoprecipitations, cells were lysed in 500 μl lysis buffer (0.5% NP-40, 150 mM NaCl, 50 mM Tris pH 7.5, with protease and phosphatase inhibitors freshly added at 1:100 [Pierce, PI78443]) on ice for 15 minutes, then centrifuged for 10 minutes at 14,000 RPM and 4° C. The supernatant was transferred to a new tube and incubated with 10 μl JAK2 antibody (Santa Cruz sc-278) or a mix of two TYK2 antibodies, 10 μl of each (Santa Cruz sc-5271 and Cell Signaling Technology 9312). Immunoprecipitation was performed overnight at 4° C. with rotation. The next day, 75 μl of protein A/G beads (Santa Cruz sc-2003) were washed twice in lysis buffer, then incubated with immunoprecipitates overnight as before. The next day, the beads were spun down (1 min. at 7,500 RPM and 4° C.) and washed 3 times with 650 μl lysis buffer for 10 minutes at 4° C. with rotation, then boiled in 50 μl sample buffer+10% β-mercaptoethanol. For Western blot, 20 μl were loaded per lane. For detection of phospho-tyrosine, a mixture of two pan-phospho-tyrosine antibodies (Cell Signaling Technology 9411 and 9416, 1:1000 of each) was used. Antibody to phospho-Y1007/1008 JAK2 was from Cell Signaling 86 Technology (3771, used at 1:1000). Antibody to phospho-Y570 JAK2 was from Millipore (09-241, used at 1:1000). Luminometric Assays Luciferase reporter cell lines were described previously (186). Firefly luciferase values were normalized by concurrent cell viability. Cell viability was measured as ATP-dependent luminescence by Cell Titer Glo (Promega).
In asking how atovaquone induces REDD1, a possible role for ATF4, which regulates REDD1 expression was considered. ATF4 is regulated mainly at the level of translation and is induced upon phosphorylation of eIF2α. […] K562 and AML2 cells, which lack STAT3 activation, were treated with rapamycin for 72 hours. […] For these reasons, it was hypothesized that atovaquone induces eIF2α phosphorylation, with a resulting increase in ATF4 protein and signaling. U266, K562, and SKBR3 cells were treated with atovaquone (20, 20, 25 μM respectively). […] The phospho-eIF2α/ATF4 pathway represents one branch of the UPR, whose other branches consist of ATF6 cleavage and IRE1-mediated XBP1 splicing. […] Thus, atovaquone selectively activates the phospho-eIF2α/ATF4 branch of the UPR. […]

gp130 = assay: Flow cytometry of cell-surface gp130; type: cell-based
Description: Annexin V/PI staining was performed using Annexin V:FITC Apoptosis Detection Kit I (BD Biosciences). Staining for cell cycle analysis was performed as previously described (267). Staining for cell-surface receptors was performed in 50 μl PBS+2% FBS with 2 μl antibody to IL6R (BioLegend #352803) or 5 μl antibody to gp130 (BD Biosciences #555757) for 20 minutes on ice in the dark. Cells were washed twice, then resuspended in 300 μl of the same buffer. Samples were analyzed on a BD FACSCanto II machine. Transfection and siRNA Cells were reverse-transfected using Lipofectamine RNAiMAX (Invitrogen); the culture medium was changed 24 hours later. Control siRNA (D-001210-02) and REDD1 siRNA (M-010855-01) were from Thermo Scientific Dharmacon.
Since atovaquone reduced gp130 expression at the cell surface, it was asked whether this effect was accompanied by reduced total gp130 in the cell. To address this question, a time course of atovaquone treatment was performed and total cellular gp130 was measured by Western blotting in U266 cells treated with atovaquone at 20 μM. […] Thus, it was surmised that atovaquone also rapidly downregulates cell-surface gp130, paralleling STAT3 inhibition and preceding the decrease in total gp130. […] Loss of cell-surface gp130 may be due to decreased entry into the plasma membrane or increased internalization. In either case, the decrease in total gp130 observed at longer time points is likely due to degradation of relatively unstable intracellular gp130.

[1] = U266, K562, SKBR3, 20, 20, 25 μM

## O=C1C(O)=C([C@H]2CC[C@H](c3ccc(Cl)cc3)CC2)C(=O)c2ccccc21 [atovaquone, trans-2-[4-(4-chlorophenyl)cyclohexyl]-3-hydroxy-1,4-naphthalenedione]
eIF2α/ATF4 pathway
  CHAC1 expression: consistently upregulated
  CHOP expression: strongly upregulates CHOP
eIF2α/ATF4 pathway; U266, 15 μM, 2 hours
  expression of ATF4 mRNA: unchanged
eIF2α/ATF4 pathway; [1]
  ATF4 protein levels: increased ATF4 protein levels
  eIF2α phosphorylation: induced eIF2α phosphorylation
gp130; INA-6 20 μM 4 hours, HEL 25 μM 6 or 16 hours
  cell surface gp130 in INA-6 and HEL cells: induced downregulation of cell surface gp130
gp130; U266, 20 μM
  cell-surface expression of gp130, flow cytometric time course: rapidly inhibits the cell-surface expression of gp130
gp130; U266, 2.5 hours, atovaquone 20 μM, JAK inhibitor 1 1 μM, brefeldin A 3 μg/ml
  cell-surface expression of gp130: substantially downregulated the cell-surface expression of gp130
